# From patent publication US20210395239A1 (Hoffmann-La Roche Inc., priority 2018, published 2021)
# Target: T1, human TLR8 (Homo sapiens, UniProt Q9NR97)
# T1 construct: host or cells: HEK293 (HEK-Blue hTLR8)
# T1 sequence (Q9NR97 27-1041): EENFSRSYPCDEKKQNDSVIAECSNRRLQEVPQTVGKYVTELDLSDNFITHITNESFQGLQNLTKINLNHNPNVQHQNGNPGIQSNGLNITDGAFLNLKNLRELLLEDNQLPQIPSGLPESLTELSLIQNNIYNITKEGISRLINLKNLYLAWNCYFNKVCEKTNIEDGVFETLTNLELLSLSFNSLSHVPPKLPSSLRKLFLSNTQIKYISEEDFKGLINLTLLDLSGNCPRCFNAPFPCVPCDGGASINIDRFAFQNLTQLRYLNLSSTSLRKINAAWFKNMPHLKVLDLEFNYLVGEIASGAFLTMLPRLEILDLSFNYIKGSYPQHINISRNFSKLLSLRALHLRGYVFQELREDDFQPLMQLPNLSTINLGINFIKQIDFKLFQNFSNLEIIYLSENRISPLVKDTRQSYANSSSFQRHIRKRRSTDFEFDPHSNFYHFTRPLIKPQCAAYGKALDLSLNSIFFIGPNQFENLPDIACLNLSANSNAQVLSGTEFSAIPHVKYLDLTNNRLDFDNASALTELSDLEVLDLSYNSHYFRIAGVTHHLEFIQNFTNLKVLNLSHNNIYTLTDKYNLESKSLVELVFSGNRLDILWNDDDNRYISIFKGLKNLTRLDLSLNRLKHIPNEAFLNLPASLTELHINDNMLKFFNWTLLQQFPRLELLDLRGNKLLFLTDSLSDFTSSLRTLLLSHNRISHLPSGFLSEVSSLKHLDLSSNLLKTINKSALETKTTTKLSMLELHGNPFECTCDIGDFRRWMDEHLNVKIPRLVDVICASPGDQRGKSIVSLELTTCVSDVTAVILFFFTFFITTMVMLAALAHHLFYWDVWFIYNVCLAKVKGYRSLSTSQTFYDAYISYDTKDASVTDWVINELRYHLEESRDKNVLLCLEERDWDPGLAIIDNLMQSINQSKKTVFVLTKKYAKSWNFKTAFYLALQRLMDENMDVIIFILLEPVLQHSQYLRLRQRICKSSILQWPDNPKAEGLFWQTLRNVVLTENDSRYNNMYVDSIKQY
# Assay: HEK293-Blue-hTLR-8 cells assay (SEAP reporter, R848 stimulation)
# Type: cell-based
# Conditions: HEK293-Blue-hTLR8 cells, R848, 20 hrs; read-out: HEK/hTLR8 IC50
# Procedure, shortened: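 HEK293-Blue-hTLR8 cells (NF-κB/AP-1-driven SEAP) incubated 20 h at 37° C with serially diluted compound (1% DMSO) plus R848 stimulation. Supernatant SEAP measured with QUANTI-Blue, 2 h at 37° C, absorbance 620–655 nm.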
row,IC50 [nM],SMILES
1,3,"Cc1cc(N2CCN(C[C@H]3CN(c4ccc(C#N)c5ncccc45)C[C@@H](C)O3)CC2)nc(N2CC3(CNCCO3)C2)n1 [Example 61, 5-[(2R,6S)-2-methyl-6-[[4-[6-methyl-2-(5-oxa-2,8-diazaspiro[3.5]nonan-2-yl)pyrimidin-4-yl]piperazin-1-yl]methyl]morpholin-4-yl]quinoline-8-carbonitrile]"
2,10,"C[C@@H]1CN(c2ccc(C#N)c3ncccc23)C[C@H](CN2CCN(c3cccc(N4CCNCC4)n3)CC2)O1 [Example 10, 5-[(2R,6S)-2-methyl-6-[[4-(6-piperazin-1-yl-2-pyridyl)piperazin-1-yl]methyl]morpholin-4-yl]quinoline-8-carbonitrile]"
3,3,"C[C@@H]1CN(c2ccc(C#N)c3ncccc23)C[C@H](CN2CCN(c3nc(N4CCNCC4)ncc3C#N)CC2)O1 [Example 50, 5-[(2S,6R)-2-[[4-(5-cyano-2-piperazin-1-yl-pyrimidin-4-yl)piperazin-1-yl]methyl]-6-methyl-morpholin-4-yl]quinoline-8-carbonitrile]"
4,18,"C[C@@H]1CN(c2ccc(C#N)c3ncccc23)C[C@H](CN2CCN(c3ccnc(N4CC(N)C4)n3)CC2)O1 [Example 23, 5-[(2S,6R)-2-[[4-[2-(3-aminoazetidin-1-yl)pyrimidin-4-yl]piperazin-1-yl]methyl]-6-methyl-morpholin-4-yl]quinoline-8-carbonitrile]"
5,23,"Cc1cc(N2CCN(C[C@H]3CN(c4ccc(C#N)n5ncc(F)c45)C[C@@H](C)O3)CC2)nc(N2CCNCC2)n1 [Example 67, 3-Fluoro-4-[(2R,6S)-2-methyl-6-[[4-(6-methyl-2-piperazin-1-yl-pyrimidin-4-yl)piperazin-1-yl]methyl]morpholin-4-yl]pyrazolo[1,5-a]pyridine-7-carbonitrile]"
6,10,"C[C@@H]1CN(c2ccc(C#N)c3ncccc23)C[C@H](CN2CCN(c3ccnc(N4CCN[C@@H](CO)C4)n3)CC2)O1 [Example 29, 5-[(2S,6R)-2-[[4-[2-[(3R)-3-(hydroxymethyl)piperazin-1-yl]pyrimidin-4-yl]piperazin-1-yl]methyl]-6-methyl-morpholin-4-yl]quinoline-8-carbonitrile]"
7,7,"C[C@@H]1CN(c2ccc(C#N)c3ncccc23)C[C@H](CN2CCN(c3cccc(N4CCN(C)CC4)n3)CC2)O1 [Example 33, 5-[(2R,6S)-2-methyl-6-[[4-[6-(4-methylpiperazin-1-yl)-2-pyridyl]piperazin-1-yl]methyl]morpholin-4-yl]quinoline-8-carbonitrile]"
8,57,"C[C@@H]1CN(c2ccc(C#N)n3ncc(F)c23)C[C@H](CN2CCN(c3ccc(N4C[C@H]5NCCO[C@@H]5C4)nc3)CC2)O1 [Example 168, 4-[(2S,6R)-2-[[4-[6-[(4aR,7aR)-3,4,4a,5,7,7a-hexahydro-2H-pyrrolo[3,4-b][1,4]oxazin-6-yl]-3-pyridyl]piperazin-1-yl]methyl]-6-methyl-morpholin-4-yl]-3-fluoro-pyrazolo[1,5-a]pyridine-7-carbonitrile]"
9,13,"C[C@@H]1CN(c2ccc(C#N)c3ncccc23)C[C@H](CN2CCC(C#N)(c3ccc(N4CCNCC4)cc3)CC2)O1 [Example 11, 5-[(2S,6R)-2-[[4-cyano-4-(4-piperazin-1-ylphenyl)-1-piperidyl]methyl]-6-methyl-morpholin-4-yl]quinoline-8-carbonitrile]"
10,12,"C[C@@H]1CN(c2ccc(C#N)c3ncccc23)C[C@H](CN2CCN(c3ccc([C@@H]4CNCCO4)cc3)CC2)O1 [Example 19, 5-[(2R,6S)-2-methyl-6-[[4-[4-[(2R)-morpholin-2-yl]phenyl]piperazin-1-yl]methyl]morpholin-4-yl]quinoline-8-carbonitrile]"
11,3,"CO[C@H]1CN(c2nc(C)cc(N3CCN(C[C@H]4CN(c5ccc(C#N)c6ncccc56)C[C@@H](C)O4)CC3)n2)CC1N (relative stereo) [Example 59, 5-[(2R,6S)-2-methyl-6-[[4-[6-methyl-2-[trans-3-amino-4-methoxy-pyrrolidin-1-yl]pyrimidin-4-yl]piperazin-1-yl]methyl]morpholin-4-yl]quinoline-8-carbonitrile]"
12,3,"C[C@@H]1CN(c2ccc(C#N)c3ncccc23)C[C@H](CN2CCN(c3cc(N4CCNCC4)ccn3)CC2)O1 [Example 9, 5-[(2R,6S)-2-methyl-6-[[4-(4-piperazin-1-yl-2-pyridyl)piperazin-1-yl]methyl]morpholin-4-yl]quinoline-8-carbonitrile]"
13,3,"C[C@@H]1CN(c2ccc(C#N)c3ncccc23)C[C@H](CN2CCN(c3ccnc(N4CCC(N)CC4)n3)CC2)O1 [Example 27, 5-[(2S,6R)-2-[[4-[2-(4-amino-1-piperidyl)pyrimidin-4-yl]piperazin-1-yl]methyl]-6-methyl-morpholin-4-yl]quinoline-8-carbonitrile]"
14,17,"C[C@@H]1CN(c2ccc(C#N)c3ncccc23)C[C@H](CN2CCN(c3cccc(N4CC(N)C(F)C4)n3)CC2)O1 (stereo partly drawn) [Example 40, 5-[(2S,6R)-2-[[4-[6-(3-amino-4-fluoro-pyrrolidin-1-yl)-2-pyridyl]piperazin-1-yl]methyl]-6-methyl-morpholin-4-yl]quinoline-8-carbonitrile]"
15,6,"Cc1cc(N2CCN(C[C@H]3CN(c4ccc(C#N)c5ncccc45)C[C@@H](C)O3)CC2)nc(N2CCOCC(N)C2)n1 (stereo partly drawn) [Example 56, 5-[(2S,6R)-2-[[4-[2-(6-amino-1,4-oxazepan-4-yl)-6-methyl-pyrimidin-4-yl]piperazin-1-yl]methyl]-6-methyl-morpholin-4-yl]quinoline-8-carbonitrile]"
16,6,"C[C@@H]1CN(c2ccc(C#N)c3ncccc23)C[C@H](CN2CCN(c3cc(N4CCNCC4)ncn3)CC2)O1 [Example 18, 5-[(2R,6S)-2-methyl-6-[[4-(6-piperazin-1-ylpyrimidin-4-yl)piperazin-1-yl]methyl]morpholin-4-yl]quinoline-8-carbonitrile]"
17,159,"C[C@@H]1CN(c2cc(=O)n(C)c3ncccc23)C[C@H](CN2CC(c3ccc(N4CC(F)[C@H](N)C4)cc3)C2)O1 (stereo in doubt) [Example 174, 4-[(2S,6R)-2-[[3-[4-[(3R,4R)-3-amino-4-fluoro-pyrrolidin-1-yl]phenyl]azetidin-1-yl]methyl]-6-methyl-morpholin-4-yl]-1-methyl-1,8-naphthyridin-2-one]"
18,11,"C[C@@H]1CN(c2ccc(C#N)c3ncccc23)C[C@H](CN2CCN(c3ccnc(N[C@H]4CNC[C@H]4F)n3)CC2)O1 [Example 24, 5-[(2S,6R)-2-[[4-[2-[[(3S,4R)-4-fluoropyrrolidin-3-yl]amino]pyrimidin-4-yl]piperazin-1-yl]methyl]-6-methyl-morpholin-4-yl]quinoline-8-carbonitrile]"
19,3,"C[C@@H]1CN(c2ccc(C#N)c3ncccc23)C[C@H](CN2CCN(c3nccc(N4CCNCC4)n3)CC2)O1 [Example 14, 5-[(2R,6S)-2-methyl-6-[[4-(4-piperazin-1-ylpyrimidin-2-yl)piperazin-1-yl]methyl]morpholin-4-yl]quinoline-8-carbonitrile]"
20,13,"CO[C@H]1CN(c2cccc(N3CCN(C[C@H]4CN(c5ccc(C#N)c6ncccc56)C[C@@H](C)O4)CC3)n2)C[C@H]1N [Example 42, 5-[(2S,6R)-2-[[4-[6-[(3R,4S)-3-amino-4-methoxy-pyrrolidin-1-yl]-2-pyridyl]piperazin-1-yl]methyl]-6-methyl-morpholin-4-yl]quinoline-8-carbonitrile]"
21,6,"C[C@@H]1CN(c2ccc(C#N)c3ncccc23)C[C@H](CN2CCN(c3ncc(N4CCNCC4)cn3)CC2)O1 [Example 17, 5-[(2R,6S)-2-methyl-6-[[4-(5-piperazin-1-ylpyrimidin-2-yl)piperazin-1-yl]methyl]morpholin-4-yl]quinoline-8-carbonitrile]"
22,9,"C[C@@H]1CN(c2ccc(C#N)c3ncccc23)C[C@H](CN2CCN(c3cncc(N4CCNCC4)c3)CC2)O1 [Example 7, 5-[(2R,6S)-2-methyl-6-[[4-(5-piperazin-1-yl-3-pyridyl)piperazin-1-yl]methyl]morpholin-4-yl]quinoline-8-carbonitrile]"
23,33,"C[C@@H]1CN(c2ccc(C#N)n3ncc(F)c23)C[C@H](CN2CCN(c3ccc(C4(C)CNCCO4)cc3)CC2)O1 (stereo partly drawn) [Example 185, 3-fluoro-4-[(2R,6S)-2-methyl-6-[[4-[4-(2-methylmorpholin-2-yl)phenyl]piperazin-1-yl]methyl]morpholin-4-yl]pyrazolo[1,5-a]pyridine-7-carbonitrile]"
